Data taken from paper PMC8597422, “Activity-based protein profiling reveals deubiquitinase and aldehyde dehydrogenase targets of a cyanopyrrolidine probe” (RSC Medicinal Chemistry, 2021).
One block for each compound: values may come before it.

How the values were obtained:
[1] = target: T1, USP30 (Homo sapiens, UniProt Q70CQ3); assay: DUB selectivity panel at […] (FP / FI in vitro assays); format: biochemical
T1 sequence (Q70CQ3 1-517): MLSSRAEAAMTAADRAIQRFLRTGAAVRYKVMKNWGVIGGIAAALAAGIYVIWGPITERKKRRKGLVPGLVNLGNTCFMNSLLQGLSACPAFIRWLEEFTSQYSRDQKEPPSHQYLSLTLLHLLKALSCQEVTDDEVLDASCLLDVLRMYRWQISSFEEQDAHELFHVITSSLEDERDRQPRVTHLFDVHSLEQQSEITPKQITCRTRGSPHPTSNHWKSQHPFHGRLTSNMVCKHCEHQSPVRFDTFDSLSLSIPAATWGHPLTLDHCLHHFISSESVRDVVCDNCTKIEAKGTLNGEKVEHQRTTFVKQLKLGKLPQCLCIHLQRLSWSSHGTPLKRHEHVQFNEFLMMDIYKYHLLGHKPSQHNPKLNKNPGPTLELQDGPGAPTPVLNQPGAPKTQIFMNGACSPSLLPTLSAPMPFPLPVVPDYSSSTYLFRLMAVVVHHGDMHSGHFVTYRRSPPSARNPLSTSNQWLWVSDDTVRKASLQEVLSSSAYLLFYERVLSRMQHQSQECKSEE

[2] = target: ALDH9A1 (Homo sapiens, UniProt P49189); assay: ABPP in HEK293 cells: streptavidin pulldown immunoblot and LFQ chemical proteomics; format: cell-based
Chain of ALDH9A1 (P49189 whole entry): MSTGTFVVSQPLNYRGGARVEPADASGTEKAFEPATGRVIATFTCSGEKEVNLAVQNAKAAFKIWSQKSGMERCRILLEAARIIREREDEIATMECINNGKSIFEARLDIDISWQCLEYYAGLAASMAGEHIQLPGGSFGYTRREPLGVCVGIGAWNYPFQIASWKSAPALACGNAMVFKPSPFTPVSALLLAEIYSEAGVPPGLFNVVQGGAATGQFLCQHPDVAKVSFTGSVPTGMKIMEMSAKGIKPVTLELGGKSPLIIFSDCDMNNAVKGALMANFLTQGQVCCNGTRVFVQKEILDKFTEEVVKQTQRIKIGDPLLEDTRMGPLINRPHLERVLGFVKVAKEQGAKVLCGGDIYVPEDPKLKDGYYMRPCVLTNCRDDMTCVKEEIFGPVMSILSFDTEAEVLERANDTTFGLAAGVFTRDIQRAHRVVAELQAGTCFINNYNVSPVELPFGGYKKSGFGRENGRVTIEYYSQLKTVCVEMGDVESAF

[3] = target: T2, ALDH2 (Homo sapiens, UniProt P05091); assay: ABPP in HEK293 cells, LFQ chemical proteomics, competed by MT16-001; format: cell-based
T2 sequence (P05091 18-517): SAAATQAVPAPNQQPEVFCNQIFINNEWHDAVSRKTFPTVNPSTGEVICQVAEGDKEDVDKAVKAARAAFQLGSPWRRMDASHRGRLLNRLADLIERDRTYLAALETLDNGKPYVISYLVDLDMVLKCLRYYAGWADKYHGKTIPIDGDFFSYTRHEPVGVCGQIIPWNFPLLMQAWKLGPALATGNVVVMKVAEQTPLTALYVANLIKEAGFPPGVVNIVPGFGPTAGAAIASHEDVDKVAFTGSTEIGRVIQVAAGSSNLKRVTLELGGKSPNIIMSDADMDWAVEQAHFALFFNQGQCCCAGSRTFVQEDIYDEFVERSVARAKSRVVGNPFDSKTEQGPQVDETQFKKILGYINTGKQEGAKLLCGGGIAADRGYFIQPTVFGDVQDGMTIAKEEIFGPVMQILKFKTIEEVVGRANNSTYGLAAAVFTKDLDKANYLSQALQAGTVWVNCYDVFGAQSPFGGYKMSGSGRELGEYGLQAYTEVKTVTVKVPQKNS

[4] = target: T3, Ubiquitin carboxy-terminal hydrolase L1 (UCHL1) (Homo sapiens, UniProt P09936); assay: fluorescence polarization assay with Ub-Lys-TAMRA, […] min preincubation; covalent adduct by LC-ESI-MS; ABPP pulldown; format: biochemical
T3 construct: recombinant UCHL1
T3 sequence (P09936 1-220): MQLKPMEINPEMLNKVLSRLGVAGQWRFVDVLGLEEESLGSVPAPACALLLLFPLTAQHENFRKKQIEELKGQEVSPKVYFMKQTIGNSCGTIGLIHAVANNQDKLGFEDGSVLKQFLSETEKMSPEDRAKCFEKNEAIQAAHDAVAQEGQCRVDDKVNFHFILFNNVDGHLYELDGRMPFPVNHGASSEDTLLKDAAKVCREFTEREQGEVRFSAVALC

[5] = target: T3, Ubiquitin carboxy-terminal hydrolase L1 (UCHL1); assay: fluorescence polarization assay with Ub-Lys-TAMRA, […] min preincubation; covalent adduct by LC-ESI-MS; cellular HTRF; format: biochemical
[6] = target: T2, ALDH2; assay: competitive ABPP against MT16-205 in HEK293 cells (LFQ proteomics); format: cell-based

inhibition at 1 µM [1]: 50%
SMILES: N#CN1CC[C@H](C(=O)Nc2nc(-c3ccccc3)cs2)C1 [MT16-009]

IC50 [4]: 600 ± 78 nM
SMILES: C#Cc1ccc(-c2cnc(NC(=O)[C@H]3CCN(C#N)C3)s2)cc1 [MT16-205]
ABPP in HEK293 cells: streptavidin pulldown immunoblot and LFQ chemical proteomi [2]: also ALDH9A1, which was one of the off-targets of MT16-205 in HEK293 cells
ABPP in HEK293 cells, LFQ chemical proteomics, competed by MT16-001 [3]: ALDH2, ALDH9A1, and GATD3A were confirmed as the genuine targets of MT16-001, MT16-205 and MT16-009

IC50 [5]: 580 ± 25 nM
SMILES: N#CN1CC[C@H](C(=O)Nc2ncc(-c3ccccc3)s2)C1 [MT16-001]
competitive ABPP against MT16-205 in HEK293 cells (LFQ proteomics) [6]: Four targets, ALDH2, ALDH9A1, GATD3A and UCHL1, responded to parent compound MT16-001 in a concentration dependent manner.
